Experimental data reported in patent US20200037609A1, “HERBICIDAL COMPOSITIONS AND METHODS OF USE THEREOF” (The Regents of the University of California, priority 2017, published 2020).

Key:
[1] = system: S. cerevisiae ΔILV3 expressing fDHAD; assay: Growth inhibition of S. cerevisiae ΔILV3 in ILV dropout media; type: cell-based, Saccharomyces cerevisiae
Experimental: Growth inhibition assay of S. cerevisiae on plates or in the tubes. S. cerevisiae was grown in isoleucine, leucine and valine (ILV) dropout media (20 g/L glucose, 0.67 g/L Difco™ Yeast Nitrogen Base w/o amino acids, 18 mg/L adenine, arginine 76 mg/L, asparagine 76 mg/L, aspartic acid 76 mg/L, glutamic acid 76 mg/L, histidine 76 mg/L, lysine 76 mg/L, methionine 76 mg/L, phenylalanine 76 mg/L, serine 76 mg/L, threonine 76 mg/L, tryptophan 76 mg/L, tyrosine 76 mg/L) to test growth inhibition of AA on S. cerevisiae. S. cerevisiae was incubated at 28° C. until OD600 of the control strain without AA treatment reached about 0.8. The ratio of yeast OD600 in media with AA treatment to yeast OD600 in media without AA was calculated as the percentage of growth inhibition. The inhibition curve was plotted as percentage of inhibition versus AA concentrations. […] The growth curves of TY05, TY06 and TY07 were also plotted (FIG. 29A-29D). The OD600 was recorded for every 20 minutes over a total of 50 h. The inhibition percentage can be calculated by following equation: […]

[2] = molecular target: T1, AstD (Aspergillus terreus, UniProt Q0CPG9); assay: DHAD enzymatic inhibition assay (phenylhydrazine derivatization, LC-MS); type: biochemical; conditions: 8 mM aspterric acid
T1 construct: […]; 6xHis; made in house; host or cells: E. coli BL21 (DE3)
T1 sequence (Q0CPG9 112-598): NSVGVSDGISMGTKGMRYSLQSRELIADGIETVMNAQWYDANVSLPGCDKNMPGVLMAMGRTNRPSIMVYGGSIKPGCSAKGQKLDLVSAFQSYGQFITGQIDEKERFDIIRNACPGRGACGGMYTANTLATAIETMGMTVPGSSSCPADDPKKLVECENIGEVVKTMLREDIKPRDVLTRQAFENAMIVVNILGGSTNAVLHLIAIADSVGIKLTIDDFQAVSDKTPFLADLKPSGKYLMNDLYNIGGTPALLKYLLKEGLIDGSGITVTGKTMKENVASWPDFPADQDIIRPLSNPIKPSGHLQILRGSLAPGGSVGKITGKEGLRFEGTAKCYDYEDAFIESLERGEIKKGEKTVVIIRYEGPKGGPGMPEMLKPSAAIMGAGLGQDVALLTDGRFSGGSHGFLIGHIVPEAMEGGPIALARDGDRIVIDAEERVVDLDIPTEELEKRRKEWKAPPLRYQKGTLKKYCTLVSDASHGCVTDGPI
Experimental: Enzymatic activity reactions were carried out in […] volumes containing 50 mM storage buffer, 10 mM (±)-Sodium 2,3-dihydroxyisovalerate hydrate (DHAD substrate) and 1 μM purified DHAD enzyme. After incubation for 30 minutes at 30° C., the reaction was stopped by adding an equal volume of ethanol. 1/10 volumes of 100 mM phenylhydrozine was added at room temperature for 30 minutes to derivatize the DHAD-synthesized molecule (3-methyl-2-oxo-butanoic acid) into a detectable derivatization product (DDP). See FIG. 5A for an overview of reactions.
Inhibition assays were carried out according to the reactions described above by incubating purified DHAD enzymes (either the housekeeping DHAD from Aspergillus terreus, the housekeeping DHAD from Arabidopsis thaliana, or AstD from Aspergillus terreus) with aspterric acid at various concentrations. For AstD, up to 8 mM of aspterric acid was tested. Derivatization with phenylhydrozine, LC-MS analysis, and DDP detection by UV absorption at 350 nm was carried out. The half maximal inhibitory concentration (IC50) and the effect of aspterric acid on the enzyme kinetics of each purified DHAD enzyme was calculated based on the initial reaction rates observed in the inhibition assays.
Biochemical assay of DHADs. […] The area of the HPLC peak with UV absorption at 350 nm was used to quantify the amount of 6. […]

[3] = system: astD transgene-expressing A. thaliana; assay: AA resistance of astD transgenic plants (media and spray); type: in vivo, Arabidopsis thaliana
Experimental: Growth inhibition assay of plants on plates or in the tubes. MS (2.16 g/L Murashige and Skoog basal medium, 8 g/L sucrose, 8 g/L agar) media was used to test the growth inhibition of AA on A. thaliana, Solanum lycopersicum, and Zea mays. A. thaliana, S. lycopersicum, G. max and Z. mays were grown under long day condition (16/8 h light/dark) using cool-white fluorescence bulbs as the light resource at 23° C. AA was dissolved in ethanol and added to the media before inoculating strains or growing plants. The media of control treatment contains the same amount of ethanol, but without AA.
Plant growth inhibition assay by spraying. AA was firstly dissolved in ethanol and then added to solvent (0.06 g/L Finale® Bayer Inc.+20 g/L EtOH). The control plants were treated with solvent containing ethanol only. A. thaliana that are resistant to glufosinate (containing the bar gene) were grown under long day conditions (16/8 h light/dark) using cool-white fluorescence bulbs as the light resource at 23° C. Spraying treatments began when the seeds germinated, and was repeated once every two days with approximately 0.4 mL AA solution per time per pot.
The coding sequence of AstD was codon optimized for A. thaliana. A chloroplast localization signal (CLS) of 35-amino acid residues derived from the N-terminal of A. thaliana DHAD (SEQ ID NO: 19) was fused to N-terminus of the codon optimized AstD. […]

[4] = system: Arabidopsis thaliana Col-0 flowers; assay: Cross experiment, AA as chemical hybridization agent; type: in vivo; conditions: 250 μM AA; for offspring obtained: listed as AA
Experimental: Flowers of Arabidopsis thaliana Col-0 plants were treated with aspterric acid. The treated flowers that were missing all six fertile stamens were selected as the female parent in a cross with a male parent of known genetic identity. Non-treated Arabidopsis plants containing a BASTA resistant gene were used as male parent to donate pollen to the plants where the flowers were missing all six fertile stamens. 2-week old F1 progeny resulting from the cross were treated with Finale (11.3% Glufosinate-ammonium) at a 1:2000 dilution.
To make male sterile A. thaliana, AA was added to chemical hybridization agent (CHA) formulation (250 μM AA, 2% ethanol, 0.1% Tween-80, 1% corn oil in water), which has less inhibition effect on the growth of A. thaliana. Flowers of the AA treated Col-0 were selected as the female parent. […] 2-week old F1 progeny resulting from the cross were treated by Finale (11.3% glufosinate-ammonium) at 1:2000 dilution.

[5] = female AA treated wild type x male un-treated glufosinate resistant plant

CC(C)=C1CC[C@]23CO[C@H](C2)[C@@](O)(C(=O)O)CC[C@@H]13 [aspterric acid]
IC50 ([1]; Saccharomyces cerevisiae, ILV dropout media, read-out: IC50 of growth inhibition, yeast expressing fDHAD): ~2000 nM
sensitivity to AA of yeast expressing fDHAD compared to yeast expressing AstD ([1]; ratio of IC50): approximately 100 times
inhibition of AstD [2]: no inhibition
inhibition of AstD ([2]; listed as AA): not inhibited
growth of astD transgenic plants on media ([3]; 100 μM AA): relatively unaffected
growth of T2 astD transgenic plants after spray ([3]; 250 μM AA + glufosinate ammonium): no observable growth defects
offspring obtained ([4]; female AA treated wild type x male AA treated glufosinate resistant plant): No offspring was obtained and No
inherit resistance [4, 5]: Yes
offspring obtained [4, 5]: Offspring was obtained and Yes
